Experimental data published in article PMC6704710, “Preclinical evaluation of 3D185, a novel potent inhibitor of FGFR1/2/3 and CSF-1R, in FGFR-dependent and macrophage-dominant cancer models” (Journal of Experimental & Clinical Cancer Research : CR, 2019).

Tests used:
Experiment in all cases: Eurofins kinase panel
Type in all cases: biochemical
Conditions in all cases: read-out: Inhibition rate (%)
MEKK2(h) = biological target: T1, MEKK2(h) (Homo sapiens, UniProt Q9Y2U5)
T1 construct: purchased Eurofins (KinaseProfiler)
T1 sequence (Q9Y2U5 1-619): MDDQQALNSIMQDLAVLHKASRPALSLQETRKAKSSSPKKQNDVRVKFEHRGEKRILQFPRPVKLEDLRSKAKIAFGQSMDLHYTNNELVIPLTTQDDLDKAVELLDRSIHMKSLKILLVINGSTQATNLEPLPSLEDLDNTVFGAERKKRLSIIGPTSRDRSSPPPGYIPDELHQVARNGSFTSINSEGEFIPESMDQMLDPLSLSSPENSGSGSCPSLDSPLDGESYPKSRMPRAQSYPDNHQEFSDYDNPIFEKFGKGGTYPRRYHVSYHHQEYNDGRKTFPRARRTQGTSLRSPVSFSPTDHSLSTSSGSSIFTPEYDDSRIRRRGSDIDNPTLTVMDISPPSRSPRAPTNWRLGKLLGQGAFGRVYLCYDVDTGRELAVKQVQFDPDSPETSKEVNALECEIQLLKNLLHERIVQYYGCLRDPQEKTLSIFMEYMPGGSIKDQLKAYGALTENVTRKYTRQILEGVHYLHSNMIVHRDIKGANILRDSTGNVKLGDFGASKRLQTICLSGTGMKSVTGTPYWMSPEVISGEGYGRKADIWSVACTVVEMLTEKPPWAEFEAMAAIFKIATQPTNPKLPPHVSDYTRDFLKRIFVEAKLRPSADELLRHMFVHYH

CDK5/p35(h) = biological target: T2, CDK5/p35(h) (Homo sapiens, UniProt Q00535)
T2 construct: purchased Eurofins (KinaseProfiler)

LRRK2(h) = biological target: T3, LRRK2(h) (Homo sapiens, UniProt Q5S007)
T3 construct: purchased Eurofins (KinaseProfiler)

Aurora-B(h) = biological target: T4, Aurora-B(h) (Homo sapiens, UniProt Q96GD4)
T4 construct: purchased Eurofins (KinaseProfiler)

Flt3(D835Y)(h) = biological target: T5, Flt3(D835Y)(h) (Homo sapiens, UniProt P36888, D835Y)
T5 construct: purchased Eurofins (KinaseProfiler)
T5 sequence (P36888 27-993 D835Y): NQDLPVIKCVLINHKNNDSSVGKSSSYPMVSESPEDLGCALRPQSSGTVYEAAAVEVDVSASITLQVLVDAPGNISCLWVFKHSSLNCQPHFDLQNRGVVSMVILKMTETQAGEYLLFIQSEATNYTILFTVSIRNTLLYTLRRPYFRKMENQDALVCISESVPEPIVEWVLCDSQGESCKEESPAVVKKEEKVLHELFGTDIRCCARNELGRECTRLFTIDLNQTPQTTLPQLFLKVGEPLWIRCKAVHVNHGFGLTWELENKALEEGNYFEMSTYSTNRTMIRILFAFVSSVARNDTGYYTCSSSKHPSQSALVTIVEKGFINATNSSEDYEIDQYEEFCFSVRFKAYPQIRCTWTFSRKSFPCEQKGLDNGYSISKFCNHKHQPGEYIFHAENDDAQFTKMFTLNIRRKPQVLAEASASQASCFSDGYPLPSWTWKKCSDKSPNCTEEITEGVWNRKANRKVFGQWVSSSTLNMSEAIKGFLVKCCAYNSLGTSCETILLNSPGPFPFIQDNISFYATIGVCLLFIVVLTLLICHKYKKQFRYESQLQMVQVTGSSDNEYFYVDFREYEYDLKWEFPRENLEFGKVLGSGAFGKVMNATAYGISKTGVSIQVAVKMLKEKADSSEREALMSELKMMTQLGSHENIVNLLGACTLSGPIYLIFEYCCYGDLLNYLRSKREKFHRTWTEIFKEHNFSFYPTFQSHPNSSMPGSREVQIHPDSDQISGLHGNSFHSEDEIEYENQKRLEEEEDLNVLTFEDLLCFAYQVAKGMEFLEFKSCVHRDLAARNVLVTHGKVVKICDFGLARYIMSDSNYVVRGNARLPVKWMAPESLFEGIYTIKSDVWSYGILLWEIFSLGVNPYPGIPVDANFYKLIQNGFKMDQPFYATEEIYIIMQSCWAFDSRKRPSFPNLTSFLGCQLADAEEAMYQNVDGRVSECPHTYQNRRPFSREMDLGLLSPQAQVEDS

Rsk1(h) = biological target: T6, Rsk1(h) (Homo sapiens, UniProt Q15418)
T6 construct: purchased Eurofins (KinaseProfiler)

EphA4(h) = biological target: T7, EphA4(h) (Homo sapiens, UniProt P54764)
T7 construct: purchased Eurofins (KinaseProfiler)

NLK(h) = biological target: T8, NLK(h) (Homo sapiens, UniProt Q9UBE8)
T8 construct: purchased Eurofins (KinaseProfiler)
T8 sequence (Q9UBE8 1-527): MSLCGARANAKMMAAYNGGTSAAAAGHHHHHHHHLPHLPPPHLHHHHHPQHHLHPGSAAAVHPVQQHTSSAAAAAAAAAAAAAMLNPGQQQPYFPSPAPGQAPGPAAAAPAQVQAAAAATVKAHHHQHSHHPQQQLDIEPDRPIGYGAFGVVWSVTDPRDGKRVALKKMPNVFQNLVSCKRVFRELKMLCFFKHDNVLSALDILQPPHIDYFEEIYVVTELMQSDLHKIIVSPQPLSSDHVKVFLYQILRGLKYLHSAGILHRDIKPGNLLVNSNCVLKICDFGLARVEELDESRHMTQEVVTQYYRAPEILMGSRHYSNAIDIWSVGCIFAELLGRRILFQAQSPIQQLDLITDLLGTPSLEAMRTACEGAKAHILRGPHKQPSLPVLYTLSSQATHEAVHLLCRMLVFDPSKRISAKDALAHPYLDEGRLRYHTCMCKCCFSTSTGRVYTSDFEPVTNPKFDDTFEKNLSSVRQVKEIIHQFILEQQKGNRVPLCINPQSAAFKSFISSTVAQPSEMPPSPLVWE

T6 sequence (Q15418 whole entry): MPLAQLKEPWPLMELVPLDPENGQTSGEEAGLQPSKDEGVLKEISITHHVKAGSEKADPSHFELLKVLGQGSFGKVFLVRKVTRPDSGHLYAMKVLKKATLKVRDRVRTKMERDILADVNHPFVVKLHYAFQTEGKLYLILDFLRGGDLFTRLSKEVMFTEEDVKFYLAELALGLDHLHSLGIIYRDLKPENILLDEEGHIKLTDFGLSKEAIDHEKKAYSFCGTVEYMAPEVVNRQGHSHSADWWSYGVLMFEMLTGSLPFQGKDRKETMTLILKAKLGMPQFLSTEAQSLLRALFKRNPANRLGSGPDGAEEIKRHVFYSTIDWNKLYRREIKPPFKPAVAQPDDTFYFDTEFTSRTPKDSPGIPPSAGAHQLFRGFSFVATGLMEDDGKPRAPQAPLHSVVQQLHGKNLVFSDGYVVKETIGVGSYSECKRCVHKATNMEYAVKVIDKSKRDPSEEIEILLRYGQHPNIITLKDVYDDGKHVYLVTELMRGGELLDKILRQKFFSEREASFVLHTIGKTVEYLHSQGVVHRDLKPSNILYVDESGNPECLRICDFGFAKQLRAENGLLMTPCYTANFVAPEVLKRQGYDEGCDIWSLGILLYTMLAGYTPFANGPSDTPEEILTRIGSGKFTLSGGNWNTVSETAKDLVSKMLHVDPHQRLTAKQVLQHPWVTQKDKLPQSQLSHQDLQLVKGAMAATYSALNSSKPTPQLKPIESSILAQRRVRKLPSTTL
T2 sequence (Q00535 whole entry): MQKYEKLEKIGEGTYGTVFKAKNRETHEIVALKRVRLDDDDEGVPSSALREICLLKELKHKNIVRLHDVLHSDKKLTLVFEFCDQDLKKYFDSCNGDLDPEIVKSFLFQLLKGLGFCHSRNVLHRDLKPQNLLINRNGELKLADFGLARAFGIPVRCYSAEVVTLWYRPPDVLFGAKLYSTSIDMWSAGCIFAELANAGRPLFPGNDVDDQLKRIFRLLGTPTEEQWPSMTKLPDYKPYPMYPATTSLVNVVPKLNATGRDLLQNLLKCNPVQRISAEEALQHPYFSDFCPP
T2 sequence (Q15078 whole entry partner): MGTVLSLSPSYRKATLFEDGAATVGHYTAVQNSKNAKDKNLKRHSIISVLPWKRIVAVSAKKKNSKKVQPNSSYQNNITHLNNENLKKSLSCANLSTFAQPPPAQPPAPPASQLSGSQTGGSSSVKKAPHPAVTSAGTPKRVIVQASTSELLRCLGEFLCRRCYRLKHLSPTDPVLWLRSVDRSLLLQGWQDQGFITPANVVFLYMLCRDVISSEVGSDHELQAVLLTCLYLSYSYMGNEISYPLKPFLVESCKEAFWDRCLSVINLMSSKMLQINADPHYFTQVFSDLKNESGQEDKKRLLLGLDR
T4 sequence (Q96GD4 whole entry): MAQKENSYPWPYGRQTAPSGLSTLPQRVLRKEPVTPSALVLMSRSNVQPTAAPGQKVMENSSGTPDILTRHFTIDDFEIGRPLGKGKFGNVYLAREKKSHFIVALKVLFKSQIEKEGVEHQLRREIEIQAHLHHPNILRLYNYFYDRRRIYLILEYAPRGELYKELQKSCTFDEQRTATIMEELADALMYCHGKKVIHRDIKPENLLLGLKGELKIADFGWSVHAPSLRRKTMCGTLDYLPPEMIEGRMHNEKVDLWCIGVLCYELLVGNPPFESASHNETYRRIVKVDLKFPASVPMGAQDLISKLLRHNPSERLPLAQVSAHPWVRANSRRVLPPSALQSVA
T3 sequence (Q5S007 whole entry): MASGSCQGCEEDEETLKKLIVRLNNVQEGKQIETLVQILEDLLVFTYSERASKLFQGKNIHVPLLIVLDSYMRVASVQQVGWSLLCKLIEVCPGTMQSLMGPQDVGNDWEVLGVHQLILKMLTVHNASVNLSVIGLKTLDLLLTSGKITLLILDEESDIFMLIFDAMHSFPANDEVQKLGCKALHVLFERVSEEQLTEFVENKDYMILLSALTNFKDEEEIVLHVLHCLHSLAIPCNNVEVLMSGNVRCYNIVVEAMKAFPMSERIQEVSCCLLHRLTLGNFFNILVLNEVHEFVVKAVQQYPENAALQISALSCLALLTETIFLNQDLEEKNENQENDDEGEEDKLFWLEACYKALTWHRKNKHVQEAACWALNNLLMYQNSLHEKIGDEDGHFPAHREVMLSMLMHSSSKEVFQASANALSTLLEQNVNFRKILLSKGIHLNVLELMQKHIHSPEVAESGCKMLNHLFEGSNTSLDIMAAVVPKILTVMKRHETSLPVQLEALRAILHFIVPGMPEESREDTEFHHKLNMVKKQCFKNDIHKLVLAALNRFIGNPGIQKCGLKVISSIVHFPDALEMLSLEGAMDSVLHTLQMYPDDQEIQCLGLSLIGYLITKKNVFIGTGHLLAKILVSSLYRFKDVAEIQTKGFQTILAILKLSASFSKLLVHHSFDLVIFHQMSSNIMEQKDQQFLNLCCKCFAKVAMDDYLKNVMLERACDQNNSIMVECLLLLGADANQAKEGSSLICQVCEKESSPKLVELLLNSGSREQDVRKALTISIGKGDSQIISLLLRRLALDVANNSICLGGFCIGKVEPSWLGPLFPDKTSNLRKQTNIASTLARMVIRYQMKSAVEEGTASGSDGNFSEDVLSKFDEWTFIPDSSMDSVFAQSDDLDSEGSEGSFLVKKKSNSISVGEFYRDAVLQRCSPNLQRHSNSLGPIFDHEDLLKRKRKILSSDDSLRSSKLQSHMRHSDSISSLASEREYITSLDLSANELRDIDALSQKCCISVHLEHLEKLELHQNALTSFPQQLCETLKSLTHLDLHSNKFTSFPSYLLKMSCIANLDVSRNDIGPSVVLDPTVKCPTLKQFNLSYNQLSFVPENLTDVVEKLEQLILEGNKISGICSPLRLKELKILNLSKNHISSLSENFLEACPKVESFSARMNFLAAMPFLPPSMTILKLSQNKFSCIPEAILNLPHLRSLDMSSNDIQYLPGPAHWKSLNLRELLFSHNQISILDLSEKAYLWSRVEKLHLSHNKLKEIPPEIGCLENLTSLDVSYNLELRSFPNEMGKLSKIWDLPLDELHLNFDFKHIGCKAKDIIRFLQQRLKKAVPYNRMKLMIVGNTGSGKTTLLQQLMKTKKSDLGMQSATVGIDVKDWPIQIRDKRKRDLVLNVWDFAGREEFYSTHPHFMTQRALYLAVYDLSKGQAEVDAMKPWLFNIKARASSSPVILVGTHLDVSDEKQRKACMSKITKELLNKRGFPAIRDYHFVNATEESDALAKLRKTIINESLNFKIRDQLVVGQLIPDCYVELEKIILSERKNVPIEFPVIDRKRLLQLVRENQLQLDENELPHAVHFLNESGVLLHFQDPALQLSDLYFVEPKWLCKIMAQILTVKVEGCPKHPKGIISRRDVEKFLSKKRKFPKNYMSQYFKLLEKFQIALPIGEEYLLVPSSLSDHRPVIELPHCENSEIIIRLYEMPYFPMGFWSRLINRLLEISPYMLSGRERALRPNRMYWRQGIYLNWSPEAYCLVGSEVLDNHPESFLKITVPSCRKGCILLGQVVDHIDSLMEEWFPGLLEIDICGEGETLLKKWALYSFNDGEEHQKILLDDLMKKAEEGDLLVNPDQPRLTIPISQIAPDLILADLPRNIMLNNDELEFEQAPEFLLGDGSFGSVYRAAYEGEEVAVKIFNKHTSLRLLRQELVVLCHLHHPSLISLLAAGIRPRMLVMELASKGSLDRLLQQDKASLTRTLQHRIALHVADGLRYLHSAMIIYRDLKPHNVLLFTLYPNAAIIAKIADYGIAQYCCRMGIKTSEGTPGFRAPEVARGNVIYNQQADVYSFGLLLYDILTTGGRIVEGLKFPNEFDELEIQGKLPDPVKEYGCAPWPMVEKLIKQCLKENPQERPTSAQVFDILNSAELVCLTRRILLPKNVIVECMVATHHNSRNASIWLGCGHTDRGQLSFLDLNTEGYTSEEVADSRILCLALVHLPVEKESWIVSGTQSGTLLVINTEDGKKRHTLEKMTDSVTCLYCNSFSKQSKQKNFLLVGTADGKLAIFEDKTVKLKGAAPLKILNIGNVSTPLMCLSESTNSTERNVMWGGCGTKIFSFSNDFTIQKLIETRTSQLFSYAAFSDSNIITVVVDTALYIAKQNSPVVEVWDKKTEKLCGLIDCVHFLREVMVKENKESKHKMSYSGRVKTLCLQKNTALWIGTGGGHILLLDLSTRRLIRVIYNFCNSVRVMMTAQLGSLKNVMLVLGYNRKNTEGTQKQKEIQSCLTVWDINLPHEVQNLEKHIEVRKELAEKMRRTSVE

**Q.** How did the inhibition at 0.01 µM (MEKK2(h); 10 nM) turn out when `COc1cc(OC)c(Cl)c(-c2ccc3c(NC(=O)c4ccc(N5CCNC(C)(C)C5)cc4)n[nH]c3n2)c1Cl` [3D185] was run?
**A.** 34%

**Q.** What about the inhibition at 0.1 µM (MEKK2(h); 100 nM) of the same molecule?
**A.** 85%

**Q.** And the inhibition at 1 µM (MEKK2(h); 1000 nM)?
**A.** 97%

**Q.** And the inhibition at 0.01 µM (CDK5/p35(h); 10 nM)?
**A.** 19%

**Q.** And the inhibition at 0.1 µM (CDK5/p35(h); 100 nM)?
**A.** 17%

**Q.** And the inhibition at 1 µM (CDK5/p35(h); 1000 nM)?
**A.** 12%

**Q.** And the inhibition at 0.01 µM (LRRK2(h); 10 nM)?
**A.** -10%

**Q.** What about the inhibition at 0.1 µM (LRRK2(h); 100 nM) of the same molecule?
**A.** -3%

**Q.** And the inhibition at 1 µM (LRRK2(h); 1000 nM)?
**A.** 21%

**Q.** What about the inhibition at 0.01 µM (Aurora-B(h); 10 nM) of the same molecule?
**A.** 7%

**Q.** What about the inhibition at 0.1 µM (Aurora-B(h); 100 nM) of the same molecule?
**A.** -4%

**Q.** And the inhibition at 1 µM (Aurora-B(h); 1000 nM)?
**A.** 5%

**Q.** What about the inhibition at 0.01 µM (Flt3(D835Y)(h); 10 nM) of the same molecule?
**A.** -1%

**Q.** And the inhibition at 0.1 µM (Flt3(D835Y)(h); 100 nM)?
**A.** -6%

**Q.** And the inhibition at 1 µM (Flt3(D835Y)(h); 1000 nM)?
**A.** 5%

**Q.** What about the inhibition at 0.01 µM (Rsk1(h); 10 nM) of the same molecule?
**A.** -1%

**Q.** What about the inhibition at 0.1 µM (Rsk1(h); 100 nM) of the same molecule?
**A.** -4%

**Q.** And the inhibition at 1 µM (Rsk1(h); 1000 nM)?
**A.** 24%

**Q.** What about the inhibition at 0.01 µM (EphA4(h); 10 nM) of the same molecule?
**A.** 14%

**Q.** What about the inhibition at 0.1 µM (EphA4(h); 100 nM) of the same molecule?
**A.** 5%

**Q.** What about the inhibition at 1 µM (EphA4(h); 1000 nM) of the same molecule?
**A.** 13%

**Q.** And the inhibition at 0.01 µM (NLK(h); 10 nM)?
**A.** 0%

**Q.** And the inhibition at 0.1 µM (NLK(h); 100 nM)?
**A.** -6%

**Q.** What about the inhibition at 1 µM (NLK(h); 1000 nM) of the same molecule?
**A.** 3%
